What follows are compounds tested against T1, Human CYP8B1 (Homo sapiens, UniProt Q9UNU6) (assay: Human CYP8B1 Liver Microsome Assay). Conditions: Human CYP8B1 IC50, human liver microsomes; substrate 7a-hydroxy-4-cholesten-3-one, NADPH; RapidFire MS detection of 7α,12α-dihydroxy-4-cholesten-3-one.
T1 sequence (Q9UNU6 1-501): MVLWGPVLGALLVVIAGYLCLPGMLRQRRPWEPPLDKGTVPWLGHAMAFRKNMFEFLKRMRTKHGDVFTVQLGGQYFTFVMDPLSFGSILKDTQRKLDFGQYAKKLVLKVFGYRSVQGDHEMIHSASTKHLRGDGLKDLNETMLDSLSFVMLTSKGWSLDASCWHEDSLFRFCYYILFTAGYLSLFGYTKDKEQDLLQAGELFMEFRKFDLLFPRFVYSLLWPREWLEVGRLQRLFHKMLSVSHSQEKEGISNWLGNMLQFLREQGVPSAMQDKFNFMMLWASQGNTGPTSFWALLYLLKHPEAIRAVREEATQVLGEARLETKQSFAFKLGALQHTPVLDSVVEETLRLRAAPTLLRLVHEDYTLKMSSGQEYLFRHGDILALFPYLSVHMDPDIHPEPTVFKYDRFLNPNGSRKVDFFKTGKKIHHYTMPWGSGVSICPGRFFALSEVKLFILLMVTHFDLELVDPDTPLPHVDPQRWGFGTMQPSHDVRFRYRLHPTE
Experimental: To a 384 well polypropylene plate (Corning 3656), 250 nl of inhibitor in 100% DMSO (1.25% final DMSO concentration) was pre-plated using an Echo liquid handler (Labcyte Inc.). Human liver microsomes (Xenotech) were diluted in of 0.1 M phosphate buffer, pH 7.4, at a concentration of 65 μg/ml and 15 μL was added to the 384 well plate. The plates were incubated at ambient room temperature for 30 minutes. After pre-incubation with inhibitor, the reaction was initiated by adding 5 μl of substrate solution (4.0 μM 7a-hydroxy-4-cholesten-3-one (Toronto Research Chemicals), 2 mM of NADPH (Sigma), 0.1 M phosphate buffer (pH 7.4). The reaction was carried out for 45 minutes at ambient room temperature and was quenched by the addition of 50 μl of acetonitrile+0.1% vol/vol formic acid (FA)+300 nM 7α-hydroxy-4-cholesten-3-one-d7 (Toronto Research Chemicals). The plates were sealed and centrifuged at 3000 rpm for 5 minutes. Plates were loaded onto the Agilent RapidFire RF300 HTMS system, wherein samples were sipped for 600 ms, and the sip sensor detection signals the diversion of sample from the loop onto a C4 solid phase extraction (SPE) cartridge, where salts are washed off for 2500 ms with a mobile phase of water with 0.1% vol/vol FA at a flow rate of 1.5 ml/min. The column path was switched, and the sample was eluted off the cartridge and flowed into the mass spectrometer for 3000 ms with a mobile phase of acetonitrile and 0.1% vol/vol FA at a flow rate of 1.25 ml/min. The aspirator tip was washed separately with water and acetonitrile between sample aspirations (each for 600 ms) to minimize carryover contamination. Mass spectrometry was carried out using a Sciex API4000 triple quadrupole mass spectrometer (Applied Biosystems, Concord, ON, Canada) equipped with electrospray ionization (ESI) operated in the positive-ion mode. The product 7α,12α-dihydroxy-4-cholesten-3-one and internal standard 7α-hydroxy-4-cholsten-3-one-d7 were detected using multiple reaction monitoring (MRM) with Q1/Q3 transitions at m/z 417.3 to 381.3 and m/z 408.3 to 390.3, respectively, with a dwell time of 100 ms and a collision energy of 24 V for each transition. The mass spectrometer used an ESI voltage of 5000 V and a source temperature of 650° C. Extracted ion chromatograms for each transition were integrated and processed using the RapidFire Integrator software. The data for each well were normalized by monitoring product conversion with the ratio of AUCproduct/(AUCinternal standard). The data was then fitted to a four parameter logistic fit using ActivityBase Software to calculate an IC50 of the inhibitor.

IC50	SMILES
0.2 nM	COc1ccc2c(N3CC[C@H](C(=O)N4CCn5c(nnc5C(F)(F)F)C4)[C@H](C)C3)c(C#N)cnc2c1C [Example 19, 7-methoxy-8-methyl-4-[(3S,4S)-3-methyl-4-{[3-(trifluoromethyl)-5,6-dihydro[1,2,4]triazolo[4,3-a]pyrazin-7(8H)-yl]carbonyl}piperidin-1-yl]quinoline-3-carbonitrile]
774 nM	Cc1nc2ccc(F)c(F)c2c(N2CCC(C(=O)N3CCn4c(nnc4C(F)(F)F)C3)CC2)c1C#N [Example 51, 5,6-difluoro-2-methyl-4-(4-(3-(trifluoromethyl)-5,6,7,8-tetrahydro-[1,2,4]triazolo[4,3-a]pyrazine-7-carbonyl)piperidin-1-yl)quinoline-3-carbontrile]
4.2 nM	Cc1nc2ccc(Cl)cc2c(N2CC[C@H](C(=O)N3CCc4oncc4C3)[C@H](C)C2)c1C#N [Example 97, 6-chloro-4-[(3S,4S)-4-(6,7-dihydroisoxazolo[4,5-c]pyridin-5(4H)-ylcarbonyl)-3-methylpiperidin-1-yl]-2-methylquinoline-3-carbonitrile]
0.53 nM	COc1cc(Cl)cc2c(N3CC[C@H](C(=O)N4CCn5c(nnc5C(F)(F)F)C4)[C@H](C)C3)c(C#N)cnc12 [Example 18, 6-chloro-8-methoxy-4-[(3S,4S)-3-methyl-4-{[3-(trifluoromethyl)-5,6-dihydro[1,2,4]triazolo[4,3-a]pyrazin-7(8H)-yl]carbonyl}piperidin-1-yl]quinoline-3-carbonitrile]
149 nM	C=Cc1ccc2nc(C)c(C#N)c(N3CCC(C(=O)N4CCn5c(nnc5C(F)(F)F)C4)CC3)c2c1 [Example 54, 2-methyl-4-(4-(3-(trifluoromethyl)-5,6,7,8-tetrahydro-[1,2,4]triazolo[4,3-a]pyrazine-7-carbonyl)piperidin-1-yl)-6-vinylquinoline-3-carbonitrile]
0.33 nM	CC(C)COc1ccc2c(N3CC[C@H](C(=O)N4CCn5c(nnc5C(F)(F)F)C4)[C@H](C)C3)c(C#N)cnc2c1 [Example 101, 7-(2-methylpropoxy)-4-[(3S,4S)-3-methyl-4-{[3-(trifluoromethyl)-5,6-dihydro[1,2,4]triazolo[4,3-a]pyrazin-7(8H)-yl]carbonyl}piperidin-1-yl]quinoline-3-carbonitrile]
8.6 nM	Cc1nc2ccc(Cl)cc2c(N2CC[C@H](C(=O)N3CCn4nccc4C3)[C@H](C)C2)c1C#N [Example 96, 6-chloro-4-[(3S,4S)-4-(6,7-dihydropyrazolo[1,5-a]pyrazin-5(4H)-ylcarbonyl)-3-methylpiperidin-1-yl]-2-methylquinoline-3-carbonitrile]
1.2 nM	CC1CN(c2c(C#N)cnc3ccc(C(F)(F)F)cc23)CCC1C(=O)N1CCn2c(nnc2C(F)(F)F)C1 (stereo not shown) [Example 119, 4-(3-methyl-4-{[3-(trifluoromethyl)-5,6-dihydro[1,2,4]triazolo[4,3-a]pyrazin-7(8H)-yl]carbonyl}piperidin-1-yl)-6-(trifluoromethyl)quinoline-3-carbonitrile]
1.3 nM	C[C@@H]1CN(c2c(C#N)cnc3c(F)c(F)ccc23)CC[C@@H]1C(=O)N1CCn2c(nnc2C(F)(F)F)C1 [Example 8, 7,8-difluoro-4-[(3S,4S)-3-methyl-4-{[3-(trifluoromethyl)-5,6-dihydro[1,2,4]triazolo[4,3-a]pyrazin-7(8H)-yl]carbonyl}piperidin-1-yl]quinoline-3-carbonitrile]
15 nM	CC1CC(C(=O)N2CCn3c(nnc3C(F)(F)F)C2)CCN1c1c(C#N)cnc2ccc(Cl)cc12 (single isomer, unassigned) [Example 73b, 6-chloro-4-[(2R,4R) or (2S,4S)-2-methyl-4-{[3-(trifluoromethyl)-5,6-dihydro[1,2,4]triazolo[4,3-a]pyrazin-7(8H)-yl]carbonyl}piperidin-1-yl]quinoline-3-carbonitrile]
231 nM	COc1ccc2c(N3CC[C@@H](C(=O)N4CCn5c(nnc5C(F)(F)F)C4)[C@@H](C4CC4)C3)c(C#N)cnc2c1F [Example 77a, 4-[(3R,4R)-3-cyclopropyl-4-{[3-(trifluoromethyl)-5,6-dihydro[1,2,4]triazolo[4,3-a]pyrazin-7(8H)-yl]carbonyl}piperidin-1-yl]-8-fluoro-7-methoxyquinoline-3-carbonitrile]
2.1 nM	N#Cc1cnc2ccc(Cl)cc2c1N1CCC(C(=O)N2CCn3c(nnc3C(F)(F)F)C2)C(C(F)(F)F)C1 (stereo not shown) [Example 118, 6-chloro-4-[3-(trifluoromethyl)-4-{[3-(trifluoromethyl)-5,6-dihydro[1,2,4]triazolo[4,3-a]pyrazin-7(8H)-yl]carbonyl}piperidin-1-yl]quinoline-3-carbonitrile]
11.3 nM	COc1ccc2c(N3C[C@@H](C)N(C(=O)N4CCn5c(nnc5C(F)(F)F)C4)[C@H](C)C3)c(C#N)cnc2c1 [Example 83a, 4-((3R,5R)-3,5-dimethyl-4-(3-(trifluoromethyl)-5,6,7,8-tetrahydro-[1,2,4]triazolo[4,3-a]pyrazine-7-carbonyl)piperazin-1-yl)-7-methoxyquinoline-3-carbonitrile]
35 nM	Cc1nc2ccc(Cl)cc2c(N2CC[C@H](C(=O)N3CCc4n[nH]c(C(F)(F)F)c4C3)[C@H](C)C2)c1C#N [Example 92, 6-chloro-2-methyl-4-[(3S,4S)-3-methyl-4-{[3-(trifluoromethyl)-2,4,6,7-tetrahydro-5H-pyrazolo[4,3-c]pyridin-5-yl]carbonyl}piperidin-1-yl]quinoline-3-carbonitrile]
863 nM	N#Cc1cnc2ccc(Cl)cc2c1N1CCC(C(=O)N2CCn3cc(C(F)(F)F)nc3C2)CC1 [Example 104, 6-chloro-4-(4-{[2-(trifluoromethyl)-5,6-dihydroimidazo[1,2-a]pyrazin-7(8H)-yl]carbonyl}piperidin-1-yl)quinoline-3-carbonitrile]
6140 nM	CO[C@H]1CN(c2c(C#N)cnc3ccc(Cl)cc23)CCC1C(=O)N1CCn2c(nnc2C(F)(F)F)C1 (stereo in doubt) [Example 72d, 6-chloro-4-[(3R,4R)-3-methoxy-4-{[3-(trifluoromethyl)-5,6-dihydro[1,2,4]triazolo[4,3-a]pyrazin-7(8H)-yl]carbonyl}piperidin-1-yl]quinoline-3-carbonitrile]
878 nM	N#Cc1cnc2ccc(Cl)cc2c1N1CCC(C(=O)N2CCn3cncc3C2)CC1 [Example 105, 6-chloro-4-[4-(5,6-dihydroimidazo[1,5-a]pyrazin-7(8H)-ylcarbonyl)piperidin-1-yl]quinoline-3-carbonitrile]
0.49 nM	C[C@@H]1CN(c2c(C#N)cnc3c(F)cc(F)cc23)CC[C@@H]1C(=O)N1CCn2c(nnc2C(F)(F)F)C1 [Example 26, 6,8-difluoro-4-[(3S,4S)-3-methyl-4-{[3-(trifluoromethyl)-5,6-dihydro[1,2,4]triazolo[4,3-a]pyrazin-7(8H)-yl]carbonyl}piperidin-1-yl]quinoline-3-carbonitrile]
636 nM	CC1CC(C(=O)N2CCn3c(nnc3C(F)(F)F)C2)CCN1c1c(C#N)cnc2ccc(Cl)cc12 (single isomer, unassigned) [Example 73d, 6-chloro-4-[(2R,4S) or (2S,4R)-2-methyl-4-{[3-(trifluoromethyl)-5,6-dihydro[1,2,4]triazolo[4,3-a]pyrazin-7(8H)-yl]carbonyl}piperidin-1-yl]quinoline-3-carbonitrile]
